Data taken from PubChem BioAssay (NCI).
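The concentration for 50% growth inhibition is given as GI50. The concentration for full growth arrest is given as TGI.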

Tests used:
Experiment in all cases: NCI anticancer screen, dose series, 384-well format
786-0 renal = test system: 786-0 renal
A498 renal = test system: A498 renal
A549 NSCLC = test system: A549 NSCLC
ACHN renal = test system: ACHN renal
BT-549 breast = test system: BT-549 breast
CAKI-1 renal = test system: CAKI-1 renal
CCRF-CEM leukemia = test system: CCRF-CEM leukemia
COLO 205 colon = test system: COLO 205 colon
DU-145 prostate = test system: DU-145 prostate
EKVX NSCLC = test system: EKVX NSCLC
HCC-2998 colon = test system: HCC-2998 colon
HCT-15 colon = test system: HCT-15 colon
HL-60(TB) leukemia = test system: HL-60(TB) leukemia
HOP-62 NSCLC = test system: HOP-62 NSCLC
HOP-92 NSCLC = test system: HOP-92 NSCLC
HS 578T breast = test system: HS 578T breast
HT29 colon = test system: HT29 colon
IGROV1 ovarian = test system: IGROV1 ovarian
K-562 leukemia = test system: K-562 leukemia
KM12 colon = test system: KM12 colon
LOX IMVI melanoma = test system: LOX IMVI melanoma
M14 melanoma = test system: M14 melanoma
MALME-3M melanoma = test system: MALME-3M melanoma
MDA-MB-231 breast = test system: MDA-MB-231 breast
MDA-MB-435 melanoma = test system: MDA-MB-435 melanoma
MDA-MB-468 breast = test system: MDA-MB-468 breast
MOLT-4 leukemia = test system: MOLT-4 leukemia
NCI-H226 lung = test system: NCI-H226 lung
NCI-H23 lung = test system: NCI-H23 lung
NCI-H322M lung = test system: NCI-H322M lung
NCI-H460 NSCLC = test system: NCI-H460 NSCLC
NCI-H522 lung = test system: NCI-H522 lung
NCI/ADR-RES ovarian = test system: NCI/ADR-RES ovarian
OVCAR-3 ovarian = test system: OVCAR-3 ovarian
OVCAR-4 ovarian = test system: OVCAR-4 ovarian
OVCAR-5 ovarian = test system: OVCAR-5 ovarian
OVCAR-8 ovarian = test system: OVCAR-8 ovarian
PC-3 prostate = test system: PC-3 prostate
RPMI-8226 leukemia = test system: RPMI-8226 leukemia
RXF 393 renal = test system: RXF 393 renal
SF-268 CNS = test system: SF-268 CNS
SF-295 CNS = test system: SF-295 CNS
SF-539 CNS = test system: SF-539 CNS
SK-MEL-28 melanoma = test system: SK-MEL-28 melanoma
SK-MEL-5 melanoma = test system: SK-MEL-5 melanoma
SK-OV-3 ovarian = test system: SK-OV-3 ovarian
SN12C renal = test system: SN12C renal
SNB-19 CNS = test system: SNB-19 CNS
SNB-75 CNS = test system: SNB-75 CNS
SR leukemia = test system: SR leukemia
SW-620 colon = test system: SW-620 colon
T-47D breast = test system: T-47D breast
TK-10 renal = test system: TK-10 renal
U251 glioblastoma = test system: U251 glioblastoma
UACC-257 melanoma = test system: UACC-257 melanoma
UACC-62 melanoma = test system: UACC-62 melanoma
UO-31 renal = test system: UO-31 renal

Compound: COc1ccc(-c2ccc3c(N4CCOC[C@@H]4C)nc(N4CCOC[C@@H]4C)nc3n2)cc1CO
- GI50 ([…]-0 renal): 42.2 nM
- TGI (786-0 renal): 12100 nM
- GI50 (A498 renal): < 10 nM
- TGI (A498 renal): 51.9 nM
- GI50 (A549 NSCLC): 20.4 nM
- TGI (A549 NSCLC): 6350 nM
- GI50 (ACHN renal): 25.4 nM
- TGI (ACHN renal): 11500 nM
- GI50 (BT-549 breast): 18.2 nM
- TGI (BT-549 breast): 192 nM
- GI50 (CAKI-1 renal): 31.6 nM
- TGI (CAKI-1 renal): 842 nM
- GI50 (CCRF-CEM leukemia): 14.9 nM
- TGI (CCRF-CEM leukemia): 1820 nM
- GI50 (COLO 205 colon): 24.4 nM
- TGI (COLO 205 colon): 1350 nM
- GI50 (DU-145 prostate): 40.6 nM
- TGI (DU-145 prostate): 13300 nM
- GI50 (EKVX NSCLC): 23.3 nM
- TGI (EKVX NSCLC): 583 nM
- GI50 (HCC-2998 colon): 77 nM
- TGI (HCC-2998 colon): 14900 nM
- GI50 (HCT-15 colon): 23.9 nM
- TGI (HCT-15 colon): 11300 nM
- GI50 (HL-60(TB) leukemia): 322 nM
- TGI (HL-60(TB) leukemia): 12800 nM
- GI50 (HOP-62 NSCLC): 29.2 nM
- TGI (HOP-62 NSCLC): 1880 nM
- GI50 (HOP-92 NSCLC): 19.1 nM
- TGI (HOP-92 NSCLC): 340 nM
- GI50 (HS 578T breast): 12.8 nM
- TGI (HS 578T breast): 56.3 nM
- GI50 (HT29 colon): 102 nM
- TGI (HT29 colon): 14700 nM
- GI50 (IGROV1 ovarian): 12.2 nM
- TGI (IGROV1 ovarian): 56.9 nM
- GI50 (K-562 leukemia): 56.3 nM
- TGI (K-562 leukemia): 13200 nM
- GI50 (KM12 colon): 29.4 nM
- TGI (KM12 colon): 11400 nM
- GI50 (LOX IMVI melanoma): 31.6 nM
- TGI (LOX IMVI melanoma): 294 nM
- GI50 (M14 melanoma): 19 nM
- TGI (M14 melanoma): 10500 nM
- GI50 (MALME-3M melanoma): < 10 nM
- TGI (MALME-3M melanoma): 34.7 nM
- GI50 (MDA-MB-231 breast): 21.9 nM
- TGI (MDA-MB-231 breast): 11100 nM
- GI50 (MDA-MB-435 melanoma): 42.4 nM
- TGI (MDA-MB-435 melanoma): 562 nM
- GI50 (MDA-MB-468 breast): 15.2 nM
- TGI (MDA-MB-468 breast): 56.7 nM
- GI50 (MOLT-4 leukemia): 17.9 nM
- TGI (MOLT-4 leukemia): 322 nM
- GI50 (NCI-H226 lung): 17.9 nM
- TGI (NCI-H226 lung): 284 nM
- GI50 (NCI-H23 lung): 60 nM
- TGI (NCI-H23 lung): 14300 nM
- GI50 (NCI-H322M lung): 27.6 nM
- TGI (NCI-H322M lung): 11100 nM
- GI50 (NCI-H460 NSCLC): < 10 nM
- TGI (NCI-H460 NSCLC): 11900 nM
- GI50 (NCI-H522 lung): 22.9 nM
- TGI (NCI-H522 lung): 10000 nM
- GI50 (NCI/ADR-RES ovarian): 102 nM
- TGI (NCI/ADR-RES ovarian): 26700 nM
- GI50 (OVCAR-3 ovarian): 29.9 nM
- TGI (OVCAR-3 ovarian): 11100 nM
- GI50 (OVCAR-4 ovarian): 12.9 nM
- TGI (OVCAR-4 ovarian): 95.3 nM
- GI50 (OVCAR-5 ovarian): 30.2 nM
- TGI (OVCAR-5 ovarian): 1900 nM
- GI50 (OVCAR-8 ovarian): 46.2 nM
- TGI (OVCAR-8 ovarian): 11600 nM
- GI50 (PC-3 prostate): 16.1 nM
- TGI (PC-3 prostate): 10200 nM
- GI50 (RPMI-8226 leukemia): < 10 nM
- TGI (RPMI-8226 leukemia): 10 nM
- GI50 (RXF 393 renal): 27.3 nM
- TGI (RXF 393 renal): 12000 nM
- GI50 (SF-268 CNS): 62.9 nM
- TGI (SF-268 CNS): 12900 nM
- GI50 (SF-295 CNS): 12.2 nM
- TGI (SF-295 CNS): 87.7 nM
- GI50 (SF-539 CNS): 32.2 nM
- TGI (SF-539 CNS): 11000 nM
- GI50 (SK-MEL-28 melanoma): 19.9 nM
- TGI (SK-MEL-28 melanoma): 436 nM
- GI50 (SK-MEL-5 melanoma): 10.5 nM
- TGI (SK-MEL-5 melanoma): 89.1 nM
- GI50 (SK-OV-3 ovarian): 17.6 nM
- TGI (SK-OV-3 ovarian): 365 nM
- GI50 (SN12C renal): 19 nM
- TGI (SN12C renal): 11100 nM
- GI50 (SNB-19 CNS): 249 nM
- TGI (SNB-19 CNS): 18500 nM
- GI50 (SNB-75 CNS): 14.3 nM
- TGI (SNB-75 CNS): 207 nM
- GI50 (SR leukemia): 11.3 nM
- TGI (SR leukemia): 43 nM
- GI50 (SW-620 colon): 120 nM
- TGI (SW-620 colon): 13300 nM
- GI50 (T-47D breast): < 10 nM
- TGI (T-47D breast): 23.6 nM
- GI50 (TK-10 renal): 93.8 nM
- TGI (TK-10 renal): 749 nM
- GI50 (U251 glioblastoma): 87.2 nM
- TGI (U251 glioblastoma): 17400 nM
- GI50 (UACC-257 melanoma): 42.9 nM
- TGI (UACC-257 melanoma): 396 nM
- GI50 (UACC-62 melanoma): 18.9 nM
- TGI (UACC-62 melanoma): 208 nM
- GI50 (UO-31 renal): 81.8 nM
- TGI (UO-31 renal): 19000 nM
